Entries after “also recorded” stand apart in the source; their conditions may differ. Like-named read-outs stand apart in the source and are kept apart here.
Legend:
[1] = T1 relaxivity at 20 MHz, 37°C; assay type: physicochemical
Protocol: c) Gadolinium-Komplex von 10-[2-Hydroxy-4-aza-5-oxo-7-aza-7-(perfluoroctylsulfonyl)-nonyl]-1,4,7-tris(carboxymethyl)-1,4,7,10-tetraazacyclododecan 10 g (17,09 mmol) der Titelverbindung aus Beispiel 1b) und […] (18,79 mmol) N-Hydroxysuccinimid werden in einer Mischung aus 50 ml Dimethylformamid/50 ml Chloroform gelöst. Bei 0°C gibt man 3,88 g (18,79 mmol) Dicyclohexylcarbodiimid zu und rührt 1 Stunde bei 0°C, anschließend 3 Stunden bei Raumtemperatur. Man kühlt erneut auf 0°C und gibt 5,19 g (51,27 mmol) Triethylamin/50 ml 2-Propanol zu. Anschließend werden 10,78 g (18,79 mmol) Gadolinium-Komplex von 10-(3-Amino-2-hydroxy-propyl)-1,4,7-tris(carboxymethyl)-1,4,7,10-tetraazacyclododecan (WO 95/17451) gelöst in 50 ml Wasser zugegeben und 3 Stunden bei Raumtemperatur gerührt. Man dampft zur Trockne ein, nimmt den Rückstand in einer Mischung aus 200 ml Methanol/100 ml Chloroform auf und filtriert vom Dicyclohexylharnstoff ab. Das Filtrat wird zur Trockne eingedampft und durch RP-Chromatographie gereinigt (RP-18/Laufmittel: Gradient aus Wasser/n-Propanol/ Acetonitril). Ausbeute: 16,37 g (78 % d. Th.) eines farblosen glasigen Feststoffes Wassergehalt: 7,1 % T1-Relaxivität (L/mmol·sec) bei 20 MHz, 37°C: 41 (Wasser) 49 (Humanplasma)
e) Mangan-Komplex von 10-[2-Hydroxy-4-aza-5-oxo-7-aza-7-(perfluoroctylsulfonyl)-nonyl]-1,4,7-tris(carboxymethyl)-1,4,7,10-tetraazacyclododecan (als Natriumsalz) 5 g (5,07 mmol) der Titelverbindung aus Beispiel ld) werden in 100 ml Wasser gelöst und 0,58 g (5,07 mmol) Mangan(II) -carbonat zugegeben. Man rührt3 Stunden bei 80°C. Die Lösung wird filtriert und das Filtrat mit 1 N Natronlauge auf pH 7,2 gestellt, anschließend wird gefriergetrocknet. Ausbeute: 5,87 g (quantitativ) eines farblosen amorphen Pulvers Wassergehalt: 8,4 % T1-Relaxivität (L/mmol·sec) bei 20 MHz, 37°C: 2,7 (Wasser) 4,2 (Humanplasma)
c) Gadolinium-Komplex von 10-[2-Hydroxy-4-aza-5-oxo-7-oxa-10,10,11,11,12,12,13,13,14,14,15,15,16,16,17,17,17-heptadecafluor-heptadecyl]-1,4,7-tris(carboxymethyl)-1,4,7,10-tetraazacyclododecan 7,0 g (13,41 mmol) der Titelverbindung aus Beispiel 2b) und 1,70 g (14,75 mmol) N-Hydroxysuccinimid werden in einer Mischung aus 30 ml Dimethylformamid/ 20 ml Chloroform gelöst. Bei 0°C gibt man 3,04 g (14,75 mmol) Dicyclohexylcarbodiimid zu und rührt 1 Stunde bei 0°C, anschließend 3 Stunden bei Raumtemperatur. Man kühlt erneut auf 0°C und gibt 4,48 g (44,25 mmol) Triethylamin/50 ml 2-Propanol zu. Anschließend werden 8,46 g (14,75 mmol) Gadolinium-Komplex von 10-(3-Amino-2-hydroxy-propyl)-1,4,7-tris(carboxymethyl)-1,4,7,10-tetraazacyclododecan gelöst in 40 ml Wasser zugegeben und 3 Stunden bei Raumtemperatur gerührt. Man dampft zur Trockne ein, nimmt den Rückstand in einer Mischung aus 100 ml Methanol/30 ml Chloroform auf und filtriert vom Dicyclohexylharnstoff ab. Das Filtrat wird zur Trockne eingedampft und durch RP-Chromatographie gereinigt (RP-18/Laufmittel: Gradient aus Wasser/n-Propanol/Acetonitril). Ausbeute: 11,8 g (75 % d. Th.) eines farblosen glasigen Feststoffes Wassergehalt: 8,2 % T1-Relaxivität (L/mmol·sec) bei 20 MHz, 37°C: 19 (Wasser) 33 (Humanplasma)
c) Gadolinium-Komplex von 10-[-2Hydroxy-4-oxa-1H,1H,2H,3H,3H,5H,5H,6H,6H-perfluor-tetradecyl]-1,4,7-tris(carboxymethyl)-1,4,7,10-tetraazacyclododecan 10 g (11,54 mmol) der Titelverbindung aus Beispiel 3b) werden in einer Mischung aus 100 ml Wasser/50 ml 2-Propanol gelöst und 2,09 g (5,77 mmol) Gadoliniumoxid zugegeben. Man rührt 3 Stunden bei 80°C. Die Lösung wird filtriert und im Vakuum zur Trockne eingedampft. Ausbeute: 12,48 g (quantitativ) eines glasigen Feststoffes Wassergehalt: 5,6 % T1-Relaxivität (L/mmol·sec) bei 20 MHz, 37°C: 15,2 (Wasser) 27,5 (Humanplasma)

[2] = test system: Lebergefäße am Kaninchen; experiment: Embolisation of the liver vessels in the rabbit, followed by X-ray; assay type: in vivo
Protocol: Als gut darstellbare Gefäße wurden die Lebergefäße am Kaninchen embolisiert.
Dem narkotisierten Tier wurde ein Katheter (60 cm lang, 1,5 mm Øa) über die A. femoralis bis in die Leberarterie durch die Aorta vorgeschoben. Die Lösung von Gadoliniumkomplex aus Beispiel 1c) (50 mmol/L mit 150 mg J/ml Isovist ®) wurde mit 160 µL/min appliziert. Gesamtvolumen 800 µL. Anschließend wurde der Katheter in die Aorta zurückgezogen, um die arterielle Blutversorgung der Leber im weiteren Verlauf nicht zu beeinträchtigen. […] Zum Teil ist die Abnahme der Signalintensität auf ein Herausdiffündieren des Röntgenkontrastmittels Isovist ® zurückzuführen.

[3] = test system: Nierengefäße der Ratte; experiment: Embolisation of the renal vessels in the rat, followed by X-ray; assay type: in vivo
Protocol: Als gut darstellbare Gefäße wurden die Nierengefäße der Ratte embolisiert.
Dem Tier wurde ein Katheter (20 cm lang, 0,58 mm Øi in die A. mesentrerica eingebunden und in die A. renalis der linken Niere vorgeschoben. Die Lösung der Verbindung aus Beispiel 1 c) (hier 50 mmol/1 mit 150 mg J/ml Isovist ®) wurde mit 160 µl/min appliziert. Gesamtvolumen 250 µl. Anschließend wurde der Katheter in die A. mesenterica zurückgezogen, um die Blutversorgung der Nieren im weiteren Verlauf nicht zu beinträchtigen. […] Zur Kontrolle der Nierendurchblutung wurde 1 Stunde nach der lokalen Applikation der Verbindung aus Beispiel lc) 400 µl des nierengängigen Röntgenkontrastmittels Ultravist ® 300 mg J/ml i.v. in die Schwanzvene gegeben.
Direkt nach intraarterieller, lokaler Gabe von 250 µl einer Lösung der Verbindung aus Beispiel 1 c) (50 mmol/L + 150 mg J/ml Isovist ® )in die katherisierte Nierenarterie (linke Niere, im Bild rechts)
5' p.a. Ultravist ®, 400 µl i.v. 1 Stunde nach lokaler Gabe der Verbindung aus Beispiel 1c) wurde Ultravist ® über die Schwanzvene gegeben.

[4] = test system: VX-2 Tumorzellen; experiment: Therapy of a liver carcinoma in the rabbit (chemoembolisation, MRI control); assay type: in vivo, Chinchilla-Kaninchen; conditions: rabbit VX-2 liver tumour, 75 mmol/l solution with 50 mg Cisplatin, 8 ml via catheter, MRI after 7 days; control animals 3,7 ± 1,5
Protocol: Fünf männlichen Chinchilla-Kaninchen wurde durch Injektion von VX-2 Tumorzellen in den linken Leberlappen ein Tumor gesetzt. Dem narkotisiertem Tier wurde ein Katheter (60 cm lang, 1 mm Øa) über die Arteria femoralis bis in die Nähe des Tumors vorgeschoben. Dann wurde eine Lösung der Titelverbindung aus Beispiel 1 c [75 mmol/l mit 50 mg Cisplatin (=[…]) appliziert. Gesamtvolumen 8 ml.
Anschließend wurde der Katheter entfernt. Nach 7 Tagen wurden die Tiere mittels MRI untersucht. Es zeigte sich, daß der Tumor sich in seiner Größe verringert hat (durchschnittlicher Wachstumsfaktor 0,8 ± 0,2). Bei den Kontrolltieren (3 Tiere) wurden jedoch Wachstumsraten von 3,7 ± 1,5 beobachtet.

[5] = for Konsistenz mit Zusatz von Harnstoff: 8 mol/L Harnstoff (final), also at substance concentration 400 mmol/L; for Löslichkeit in 96% Ethanol / Löslichkeit in 66% DMSO/Wasser / Löslichkeit in 66% Propylenglycol/Wasser: free-flowing solution; for Löslichkeit in Rinderplasma: solution of comparable consistency; for Einfluß auf die Konsistenz der Zubereitung: addition of 10 mmol/L HCl or NaOH, or 3 mol/L NaCl; for Veränderung der Konsistenz durch Triton X-100 / Veränderung der Konsistenz durch Tween 80: aqueous formulation; for Veränderung der Konsistenz durch Triton X-100: Triton X-100, 1.7%; for Veränderung der Konsistenz durch Tween 80: Tween 80, 4.6% final concentration; for Löslichkeit in 66% DMSO/Wasser / Löslichkeit in 66% Propylenglycol/Wasser: gut löslich at this concentration; for concentration below which a frei fließende Lösung results: in water, printed as 'Unterhalb von etwa'; for Löslichkeit in reinem DMSO: pure DMSO; for Löslichkeit in reinem Propylenglycol: pure Propylenglycol
[6] = 100 mmol/L in water, by hand or infusion pump through a 20 cm, 0.58 mm Øi tube at 160 µL/min

SMILES | T1-Relaxivität ([1]; Humanplasma) | T1-Relaxivität ([1]; Wasser) | Applizierbarkeit der Lösung [5, 6] | Konsistenz der Lösung ([5]; 100 mmol/L solution in water) | Konsistenz mit Zusatz von Harnstoff [5] | Löslichkeit in 96% Ethanol [5] [mmol/L] | Löslichkeit in Rinderplasma [5] | Einfluß auf die Konsistenz der Zubereitung [5] | Veränderung der Konsistenz durch Triton X-100 [5] | Veränderung der Konsistenz durch Tween 80 [5] | Löslichkeit in 66% DMSO/Wasser [5] [mmol/L] | Löslichkeit in 66% Propylenglycol/Wasser [5] [mmol/L] | concentration below which a frei fließende Lösung results [5] [µM] | Löslichkeit in reinem DMSO [5] | Löslichkeit in reinem Propylenglycol [5] | also measured
O=C([O-])CN1CCN(CC(=O)[O-])CCN(CC(O)COCCC(F)(F)C(F)(F)C(F)(F)C(F)(F)C(F)(F)C(F)(F)C(F)(F)C(F)(F)F)CCN(CC(=O)[O-])CC1.[Gd+3] (stereo not drawn) [3c), Gadolinium-Komplex von 10-[-2Hydroxy-4-oxa-1H,1H,2H,3H,3H,5H,5H,6H,6H-perfluor-tetradecyl]-1,4,7-tris(carboxymethyl)-1,4,7,10-tetraazacyclododecan] | 27,5 L/mmol·sec | 15,2 L/mmol·sec |  |  |  |  |  |  |  |  |  |  |  |  |  | 
O=C([O-])CN1CCN(CC(=O)[O-])CCN(CC(O)CNC(=O)COCCC(F)(F)C(F)(F)C(F)(F)C(F)(F)C(F)(F)C(F)(F)C(F)(F)C(F)(F)F)CCN(CC(=O)[O-])CC1.[Gd+3] (stereo not drawn) [2c), Gadolinium-Komplex von 10-[2-Hydroxy-4-aza-5-oxo-7-oxa-10,10,11,11,12,12,13,13,14,14,15,15,16,16,17,17,17-heptadecafluor-heptadecyl]-1,4,7-tris(carboxymethyl)-1,4,7,10-tetraazacyclododecan] | 33 L/mmol/s | 19 L/mmol/s |  |  |  |  |  |  |  |  |  |  |  |  |  | 
CCN(CC(=O)NCC(O)CN1CCN(CC(=O)[O-])CCN(CC(=O)[O-])CCN(CC(=O)[O-])CC1)S(=O)(=O)C(F)(F)C(F)(F)C(F)(F)C(F)(F)C(F)(F)C(F)(F)C(F)(F)C(F)(F)F.[Mn+2].[Na+] (stereo not drawn) [Beispiel 1e), Mangan-Komplex von 10-[2-Hydroxy-4-aza-5-oxo-7-aza-7-(perfluoroctylsulfonyl)-nonyl]-1,4,7-tris(carboxymethyl)-1,4,7,10-tetraazacyclododecan (als Natriumsalz)] | 4,2 L/mmol·sec | 2,7 L/mmol·sec |  |  |  |  |  |  |  |  |  |  |  |  |  | 
CCN(CC(=O)NCC(O)CN1CCN(CC(=O)[O-])CCN(CC(=O)[O-])CCN(CC(=O)[O-])CC1)S(=O)(=O)C(F)(F)C(F)(F)C(F)(F)C(F)(F)C(F)(F)C(F)(F)C(F)(F)C(F)(F)F.[Gd+3] (stereo not drawn) [Beispiel 1c), Gadolinium-Komplex von 10-[2-Hydroxy-4-aza-5-oxo-7-aza-7-(perfluoroctylsulfonyl)-nonyl]-1,4,7-tris(carboxymethyl)-1,4,7,10-tetraazacyclododecan] | 49 L/mmol/s | 41 L/mmol/s | problemlos | klar durchsichtig und besitzt eine gelartig feste Konsistenz | frei fließende Lösung | > 500 | ebenso löslich wie in reinem Wasser | keinen Einfluß auf die Konsistenz | Verflüssigung der gelartigen Konsistenz | keine Veränderung der Konsistenz | ≥ 150 | ≥ 250 | 10000 to 20000 | praktisch unlöslich | praktisch unlöslich | Abgrenzung der Gefäße der Leber in Röntgenaufnahmen ([2]; 800 µL of 50 mmol/L solution with 150 mg J/ml Isovist into liver artery at 160 µL/min): scharf gegenüber dem Leberparenchym abgegrenzt; Signalintensität der Gefäße in der Leber ([2]; within 60 minutes after administration): nur langsam ab; Abgrenzung der Gefäße der linken Niere in Röntgenaufnahmen ([3]; 250 µl of 50 mmol/1 solution with 150 mg J/ml Isovist into A. renalis at 160 µl/min): scharf gegenüber dem Nierenparenchym abgegrenzt; Enhancement der embolisierten linken Niere und ihres Harnleiters ([3]; 400 µl Ultravist 300 mg J/ml i.v. 1 hour after local application, non-embolised right kidney enhanced): kein Enhancement; also recorded: bleibt dunkel; Signalintensität der Gefäße in der Niere ([3]; up to 45 minutes after administration, attributed to Isovist diffusing out): deutlich ab; durchschnittlicher Wachstumsfaktor des Tumors [4]: 0,8 ± 0,2; Applizierbarkeit der Lösung ([5]; 100 mmol/1 in water with 100 mg J/ml Isovist, 20 cm, 0,58 mm Øi tube at 160 µl/min): problemlos; Konsistenz der Lösung ([5]; 100 mmol/1 solution in water with 100 mg J/ml Isovist): klar durchsichtig und besitzt eine gelartig feste Konsistenz
CCN(CCCCCCCCCCC(=O)NCC(O)CN1CCN(CC(=O)[O-])CCN(CC(=O)[O-])CCN(CC(=O)[O-])CC1)S(=O)(=O)C(F)(F)C(F)(F)C(F)(F)C(F)(F)C(F)(F)C(F)(F)C(F)(F)C(F)(F)F.[Dy+3] (stereo not drawn) [Beispiel 30f)] |  |  | problemlos | klar durchsichtig und besitzt eine gelartig feste Konsistenz | frei fließende Lösung | > 500 | ebenso löslich wie in reinem Wasser | keinen Einfluß auf die Konsistenz | Verflüssigung der gelartigen Konsistenz | keine Veränderung der Konsistenz | ≥ 150 | ≥ 250 | 10000 to 20000 | praktisch unlöslich | praktisch unlöslich | 
